B1: PALP: highly purified placental alkaline phosphatase (protein, UniProt P05187 23-506, looked up)
Alkaline phosphatase, …: IIPVEEENPDFWNREAAEALGAAKKLQPAQTAAKNLIIFLGDGMGVSTVTAARILKGQKKDKLGPEIPLAMDRFPYVALSKTYNVDKHVPDSGATATAYLCGVKGNFQTIGLSAAARFNQCNTTRGNEVISVMNRAKKAGKSVGVVTTTRVQHASPAGTYAHTVNRNWYSDADVPASARQEGCQDIATQLISNMDIDVILGGGRKYMFRMGTPDPEYPDDYSQGGTRLDGKNLVQEWLAKRQGARYVWNRTELMQASLDPSVTHLMGLFEPGDMKYEIHRDSTLDPSLMEMTEAALRLLSRNPRGFFLFVEGGRIDHGHHESRAYRALTETIMFDDAIERAGQLTSEEDTLSLVTADHSHVFSFGGYPLRGSSIFGLAPGKARDRKAYTVLLYGNGPGYVLKDGARPDVTESESGSPEYRQQSAVPLDEETHAGEDVAVFARGPQAHLVHGVQEQTFIAHVMAFAACLEPYTACDLAPPAGTTD

How the values were obtained:
Format in all cases: in vivo
ob/ob mice [1] = assay: Blood glucose in ob/ob mice, CCcompound1 combined with human proteins AGP and TF
Experimental: For each experimental group, ob/ob mice were chosen (5 mice in each group) that were 43 days old and weighed on average 40.3±1.9-g on the first day of experiment. Three groups of mice were treated with s.c. injection of 4.5-mg/kg CCcompound1 once every day for 17 days. Mice in one of these CCcompound1-treated groups received no other treatment, and their blood was drawn for glucose analysis on day 14 and 17 exactly 45 min after treatment. The second CCcompound1-treated group also received 0.5-mg/mouse (˜11 mg/kg) dose of greater than 98% pure commercial human transferrin [catalogue number, T 3309 according to 2004/2005 Sigma catalogue]. In this second group the blood was drawn on day 14 just prior to TF administration and on day 17 two hours after TF and 45 min after CCcompound1 administration. An additional group of animals received only TF treatment. The third CCcompound1-treated group also received 1.2-mg/mouse (26.6-mg/kg) dose of >99% pure human AGP [catalogue number G 9885 according to 2004/2005 Sigma catalogue]; in this group the blood was drawn on day 14 just prior to AGP administration and on day 17 two hours and 45 minutes after administration of AGP and CCcompound1, respectively. An additional group of animals received only AGP treatment, and yet another group of animals received no treatment at all. On day 1, prior to any treatment, the blood glucose level of all animals was in the range of 7.2-7.9 mM.

C57/BL/6 mice [2] = assay: Glucose tolerance test with normal mice (CC1, CC3, CC19); conditions: for Reduction of blood glucose level: 30th min of test period
Experimental: C57/BL/6 female mice weighing 22-23-g and fasted for 14 hours before intraperitoneal (i.p.) administration of glucose (3-g/kg) were used. None of the animals received any food during the experiment other than glucose. The animals received i.p. injections of 4.5-mg/kg of CCcompound1, CCcompound3, or CCcompound19 either 1 hour or 24 hours prior to glucose administration as indicated in TABLE 3. Blood samples were taken from the eyes (canthus), and glucose concentrations in whole blood samples were immediately measured with the Fast Glucose C test. Each group included six animals. The data, shown in TABLE 3, are the mean±std. dev. of 6 determinations, i.e. one determination with each of the six animals. In this and all subsequent experiments the values at 0 min reflect glucose concentration in blood samples collected 1-5 minutes prior to the administration of glucose.

ob/ob mice [3] = assay: Blood glucose level of normally fed ob/ob obese diabetic mice, daily treatment; conditions: second experiment
Source text: Adult female leptin-deficient ob/ob obese diabetic inbred specified pathogen free (SPF) hygienic category mice from Charles River VRF1 were used for these experiments. The mice weighed 32-36-g at arrival. The ob/ob obese mouse is an extensively used animal model for the study of non-insulin-dependent-diabetes mellitus (NIDDM). The mutation was propagated in the C57BL/6J (BL/6) inbred strain. Homozygous obese (ob/ob) animals developed hyperglycemia due to insulin resistance, hyperinsulinemia (to compensate for reduced insulin action), and obesity. In these animals gluconeogenesis is enhanced despite their hyperinsulinemic state. The animals were kept in macrolon cages at 22-24° C. and 50-60% humidity, with lighting regimen of 12/12 h light dark. They had free access to tap water and were fed a sterilized standard diet (Charles River VRF1, autoclavable). The animals were cared for according to the “Guiding Principles for the Care and Use for Animals” based upon the Helsinki declaration. The ob/ob mice gained weight rapidly and developed a marked obesity by 5-6 weeks of age. […] When arrived they were 5 weeks old (when the experiment was performed with CCcompound1) or 4.5 weeks old (when the experiment was performed with CCcompound3 and CCcompound19). The treatments started 8 days later in the experiment performed with CCcompound1 and 10 days later in the experiment performed with CCcompound3 and CCcompound19. Experimental groups selected from ob/ob mice were injected subcutaneously (s.c.) at regular intervals once daily for 14 days with CCcompound1 or an analog (CCcompound3 or CCcompound19) each at the dose of 4.5-mg per kg. Control groups were also selected from ob/ob mice that remained untreated during the entire length of the experiment. In the first experiment, for which the data is presented in TABLE 11, blood samples were taken either 45 min or 6 hours after treatments with CCcompound1. In the second experiment, for which the data is presented in TABLE 12, blood samples were taken 45 min after treatments with the analogs of CCcompound1. Blood glucose was determined with the Fast Glucose C test. Both the untreated and CC compound-treated groups included 5 animals. The data are the mean±std. dev.

Wistar rats = assay: Glucose tolerance test in starved rats
Experimental: Male Wistar rats weighing 240-270-g were divided into 3 groups, each group consisting of 6 or 7 animals. To ensure standard conditions animals were starved for 14 hours before the start of the experiment. CCcompound1 and CCcompound3 were injected (i.p.) 30 min prior to injecting 3-g/kg of glucose (i.p.). Blood sugar values of the experimental animals were measured with the Fast Glucose C-test; blood samples were taken from the tail. The data are the mean±std. dev. of 6-7 determinations, i.e. one determination with each of the 6-7 animals in the respective groups.

C57/BL/6 mice [4] = assay: Glucose tolerance test with normal mice, CCcompound1 and sub-optimal insulin; conditions: CCcompound1 4.5-mg/kg i.p. 60 min and/or insulin 0.02 IU 15 min prior to glucose
Experimental: In this experiment, a sub-optimal dose of insulin (0.02 international unit-IU) was used to probe if CCcompound1 indeed can enhance the effect of insulin on blood glucose. Again C57/BL/6 female mice weighing 22-23-g and fasted for 14 hours prior to i.p. glucose administration (3-g/kg), were used. None of the animals received any food during the experiment other than glucose. The animals received i.p. injections of 4.5-mg/kg of CCcompound1 and/or 0.02 Unit insulin 60 min and 15 min prior to glucose administration, respectively. Blood samples were taken and glucose concentrations measured as indicated earlier. Each group included six animals. The data are the mean±std. dev. of 6 determinations, i.e. one determination with each of the six animals.

[5] = test system: BDF1 (C57/BL/6 female×DBA/2 male) mice; assay: Glucose tolerance test with BDF1 mice, CCcompound1 and sub-optimal insulin; conditions: CCcompound1 4.5-mg/kg i.p. −15 min and/or insulin 0.02 IU −10 min
Experimental: In this experiment again, a sub-optimal dose of insulin was used to probe if CCcompound1 can enhance the effect of insulin on blood glucose. This time first generation hybrid BDF1 (C57/BL/6 female×DBA/2 male) adult (10-12 weeks old) male mice weighing 28-30-g and fasted for 14 hours before i.p. glucose administration (3-g/kg) were used. These mice were […] than mice in the previous experiment described under Example 5. None of the animals received any food during the experiment other than glucose. The animals received i.p. injections of 4.5-mg/kg of CCcompound1 and 0.02 IU of insulin 15 min and 10 min prior to glucose administration. Blood samples were taken and glucose concentrations in whole blood samples determined as described earlier. Each group included six animals. The data are the mean±std. dev. of 6 determinations, i.e. one determination with each of the six animals.

C57/BL/6 mice [6] = assay: Glucose tolerance test with normal mice, PALP and CCcompound1 combined; conditions: PALP 0.4 mg/mouse i.p. −24 h
Experimental: Female C57/BL/6 mice weighing 24-26-g and fasted for 12 hours before i.p. glucose administration (3 g/kg) were used. None of the animals received any food during the experiment other than glucose. One group of animals was untreated while animals in other groups received subcutaneous (s.c.) injections of 2.0 or 4.5-mg/kg of CCcompound1 either 30 min or 60 min prior to glucose administration as indicated in TABLE 5. Two groups of animals received i.p. injections of 0.4-mg per mouse (˜16-mg per kg) of highly purified PALP 24 hours prior to glucose administration. Purification of PALP was described in detail earlier [Z. Kiss, U.S. Pat. No. 7,048,914, “Placental Alkaline Phosphatase to Control Diabetes]. Animals in one of the PALP treated group also received s.c. injections of 4.5-mg/kg of CCcompound1 30 min prior to glucose administration as indicated in TABLE 5. Blood samples were taken and glucose concentrations were immediately measured as described earlier. Each group included five animals. The data are the mean±std. dev. of 5 determinations, i.e. one determination with each of the five animals. “-min” and “-h” indicates the length of period in minutes and hours, respectively, elapsed between the administration of test agents (first) and glucose (second).

[7] = 14th day, CC1 4.5-mg/kg s.c. daily, 45 min after treatment, blood drawn just prior to AGP or TF administration
[8] = 17th day, 45 min after CC1 4.5-mg/kg s.c., two hours after TF 0.5-mg/mouse or AGP 1.2-mg/mouse
[9] = 4.5-mg/kg i.p. 1 h prior to glucose 3-g/kg i.p., 0 min
[10] = 4.5-mg/kg i.p. 1 h prior to glucose
[11] = 4.5-mg/kg i.p. 1 h prior to glucose, 30 min
[12] = 4.5-mg/kg i.p. 1 h prior to glucose, 60 min
[13] = 4.5-mg/kg i.p. 1 h prior to glucose, 120 min
[14] = 4.5-mg/kg i.p. 1 h prior to glucose, 180 min
[15] = 4.5-mg/kg s.c. once daily, 45 min after treatment, day 1
[16] = 4.5-mg/kg s.c. once daily, day 0

Molecule	Blood glucose level (ob/ob mice [1]; [7])	Blood glucose level (ob/ob mice [1]; [8])	Blood glucose (C57/BL/6 mice [2]; [9])	Reduction of blood glucose level (C57/BL/6 mice [2]; [10])	Blood glucose (C57/BL/6 mice [2]; [11])	Blood glucose (C57/BL/6 mice [2]; [12])	Blood glucose (C57/BL/6 mice [2]; [13])	Blood glucose (C57/BL/6 mice [2]; [14])	Blood glucose (ob/ob mice [3]; [15])	Blood glucose (ob/ob mice [3]; [16])	Blood glucose (ob/ob mice [3]; 45 min after treatment, day 5)	Blood glucose (ob/ob mice [3]; 45 min after treatment, day 10)	Blood glucose (ob/ob mice [3]; 45 min after treatment, day 15)	further results
TF: greater than 98% pure commercial human transferrin, Sigma T 3309	15.8 ± 0.4 mM	13.6 ± 0.7 mM												
C[N+](C)(C)CCC=C1c2ccccc2Sc2ccccc21.[I-] [CCcompound 19, N,N,N-trimethyl-3-(9H-thioxanthen-9-ylidene)-propane-1-aminium iodide]			2.1 ± 0.5 mM	23%	5.7 ± 0.4 mM	4.6 ± 0.6 mM	3.1 ± 0.2 mM	2.2 ± 0.4 mM	6.2 ± 0.9 mM	9.3 ± 0.7 mM	7.7 ± 0.5 mM	9.3 ± 0.9 mM	10.4 ± 1.0 mM	
CC[N+](C)(CC)CCOCc1ccc2sc3ccccc3c(=O)c2c1 [CCcompound 3]			1.7 ± 0.5 mM	19%	6.6 ± 0.3 mM	5.0 ± 0.2 mM	3.6 ± 0.5 mM	2.7 ± 0.4 mM	7.6 ± 0.7 mM	9.1 ± 0.6 mM	8.6 ± 0.9 mM	11.0 ± 0.6 mM	12.6 ± 0.5 mM	Blood glucose (Wistar rats; rats starved 14 h, i.p. 30 min prior to glucose 3-g/kg i.p., 0 min): 4.73 ± 0.24 mM; Blood glucose (Wistar rats; rats, i.p. 30 min prior to glucose, 30 min): 9.36 ± 0.43 mM; Blood glucose (Wistar rats; rats, i.p. 30 min prior to glucose, 60 min): 6.66 ± 0.33 mM; Blood glucose (Wistar rats; rats, i.p. 30 min prior to glucose, 90 min): 5.71 ± 0.38 mM; Blood glucose (Wistar rats; rats, i.p. 30 min prior to glucose, 120 min): 5.43 ± 0.60 mM
Insulin: insulin, sub-optimal dose 0.02 IU [reference compound]														Blood glucose (C57/BL/6 mice [4]; 0 min): 2.1 ± 0.6 mM; Blood glucose (C57/BL/6 mice [4]; 30 min): 7.2 ± 0.4 mM; Blood glucose (C57/BL/6 mice [4]; 60 min): 5.6 ± 0.5 mM; Blood glucose (C57/BL/6 mice [4]; 120 min): 3.8 ± 0.4 mM; Blood glucose ([5]; 0 min): 3.1 ± 0.4 mM; Blood glucose ([5]; 30 min): 6.4 ± 0.5 mM; Blood glucose ([5]; 60 min): 5.6 ± 0.3 mM
AGP: >99% pure human α1-acid glycoprotein, Sigma G 9885	16.0 ± 0.5 mM	12.4 ± 0.6 mM												
B1														Blood glucose (C57/BL/6 mice [6]; 0 min): 3.7 ± 0.5 mM; Blood glucose (C57/BL/6 mice [6]; 30 min): 6.8 ± 0.3 mM; Blood glucose (C57/BL/6 mice [6]; 60 min): 5.3 ± 0.4 mM; Blood glucose (C57/BL/6 mice [6]; 120 min): 4.3 ± 0.5 mM

From patent US20090317372A1, “SMALL MOLECULES FOR THE REDUCTION OF HIGH BLOOD GLUCOSE LEVEL” (priority 2008, published 2009)
